Source: the NIST ThermoML archive (doi:10.1021/je200309v)

Assay: mn = molality of the nth substance listed, in mol/kg
Settings: 101 kPa, Liquid, Alternating current cell with electrodes

CC[N+](CC)(CC)CC.F[B-](F)(F)F [tetraethylammonium tetrafluoroborate] + CC1COC(=O)O1
electrical conductivity [S/m]
Settings | m1 = 0.1593 | m1 = 0.461 | m1 = 0.5658 | m1 = 0.7282 | m1 = 0.8234 | m1 = 0.9666 | m1 = 1.186 | m1 = 1.425
253.15 K | 0.1317 | 0.278 | 0.3133 | 0.3523 | 0.366 | 0.3749 | 0.359 | –
273.15 K | 0.239 | 0.519 | 0.591 | 0.676 | 0.712 | 0.745 | 0.75 | 0.689
293.15 K | 0.364 | 0.812 | 0.929 | 1.07 | 1.128 | 1.19 | 1.201 | 1.116
313.15 K | 0.516 | 1.16 | 1.333 | 1.543 | 1.635 | 1.73 | 1.77 | 1.69
333.15 K | 0.678 | 1.535 | 1.76 | 2.049 | 2.18 | 2.314 | 2.4 | 2.307
